Measurements as given in PubChem BioAssay AID248 (DTP/NCI, 2004).
Inconclusive results and toxic doses are left out. Rule as the data show it: active = T/C of 150% or more; inactive = T/C below 125%.

System: L1210 leukemia ip in BDF1 mice, survival T/C
Assay: NCI In Vivo Anticancer Drug Screen. Data for tumor model L1210 Leukemia (intraperitoneal) in B6D2F1 (BDF1) mice
Details: endpoint: mean survival time, higher = longer survival
Method in brief: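 Tumor was transplanted into mice, which were then dosed with test compound or vehicle alone. Survival was recorded for each group, and the treated figure was expressed relative to the control figure.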

[1] = dose: 100.0 mg/kg/injection, schedule: Q04DX003 (ip), vehicle: saline with Tween-80
[2] = dose: 200.0 mg/kg/injection, schedule: Q04DX003 (ip), vehicle: saline with Tween-80
[3] = dose: 400.0 mg/kg/injection, schedule: Q04DX003 (ip), vehicle: saline with Tween-80
[4] = dose: 50.0 mg/kg/injection, schedule: Q01DX009 (ip), vehicle: saline with Tween-80
[5] = dose: 100.0 mg/kg/injection, schedule: Q01DX009 (ip), vehicle: saline with Tween-80
[6] = dose: 200.0 mg/kg/injection, schedule: Q01DX009 (ip), vehicle: saline with Tween-80
[7] = dose: 100.0 mg/kg/injection, schedule: Q01DX001 (ip), vehicle: saline
[8] = dose: 200.0 mg/kg/injection, schedule: Q01DX001 (ip), vehicle: saline
[9] = dose: 400.0 mg/kg/injection, schedule: Q01DX001 (ip), vehicle: saline
[10] = dose: 100.0 mg/kg/injection, schedule: Q01DX009 (ip), vehicle: saline
[11] = dose: 100.0 mg/kg/injection, schedule: Q04DX003 (ip), vehicle: saline
[12] = dose: 200.0 mg/kg/injection, schedule: Q01DX009 (ip), vehicle: saline
[13] = dose: 200.0 mg/kg/injection, schedule: Q04DX003 (ip), vehicle: saline
[14] = dose: 400.0 mg/kg/injection, schedule: Q01DX009 (ip), vehicle: saline
[15] = dose: 400.0 mg/kg/injection, schedule: Q04DX003 (ip), vehicle: saline
[16] = dose: 25.0 mg/kg/injection, schedule: Q04DX003 (ip), vehicle: saline with Tween-80
[17] = dose: 50.0 mg/kg/injection, schedule: Q04DX003 (ip), vehicle: saline with Tween-80
[18] = dose: 100.0 mg/kg/injection, schedule: Q01DX009 (ip), vehicle: Klucel (hydroxypropylcellulose) (HPC)
[19] = dose: 200.0 mg/kg/injection, schedule: Q01DX009 (ip), vehicle: Klucel (hydroxypropylcellulose) (HPC)
[20] = dose: 400.0 mg/kg/injection, schedule: Q01DX009 (ip), vehicle: Klucel (hydroxypropylcellulose) (HPC)

Measured: T/C

CCC(C(O)c1ccc(F)cc1)C(O)(C(F)(F)F)C(F)(F)F (stereo unspecified)
inactive: dose: 50.0 mg/kg/injection, schedule: Q01DX009 (ip), vehicle: other 93 % of control | dose: 100.0 mg/kg/injection, schedule: Q01DX009 (ip), vehicle: other 102 % of control | [1] 101 % of control | dose: 200.0 mg/kg/injection, schedule: Q01DX009 (ip), vehicle: other 98 % of control | [2] 100 % of control | [3] 90 % of control

CC(=O)CCSC(C)C
inactive: [4] 89 % of control | [5] 92 % of control | [6] 92 % of control

COc1nc(N)nc2nc(N)c(-c3ccc(N(CCO)CCO)cc3)nc12
inactive: [7] 95 % of control | [8] 96 % of control | [9] 95 % of control

O=C1C=CC(=O)N1C12CC3CC(CC(C3)C1)C2
inactive: dose: 12.5 mg/kg/injection, schedule: Q04DX002 (ip), vehicle: Klucel (hydroxypropylcellulose) (HPC) 98 % of control | dose: 25.0 mg/kg/injection, schedule: Q04DX002 (ip), vehicle: Klucel (hydroxypropylcellulose) (HPC) 105 % of control | dose: 50.0 mg/kg/injection, schedule: Q04DX002 (ip), vehicle: Klucel (hydroxypropylcellulose) (HPC) 94 % of control

COc1cc(C(=O)OC2=CC(=O)c3nc(OC(=O)c4cc(OC)c(OC)c(OC)c4)ccc3C2=O)cc(OC)c1OC
inactive: [7] 93 % of control | [8] 91 % of control | [9] 95 % of control

CN(C)/N=N/c1nc[nH]c1C(N)=O.[Cl][Cu][Cl]
inactive: dose: 9.5 mg/kg/injection, schedule: Q01DX001 (ip), vehicle: saline 103 % of control | dose: 19.0 mg/kg/injection, schedule: Q01DX001 (ip), vehicle: saline 95 % of control | dose: 38.0 mg/kg/injection, schedule: Q01DX001 (ip), vehicle: saline 101 % of control

CN(C)C(=S)OCC(C)(C)C
inactive: [1] 113 % of control | [2] 100 % of control | [3] 97 % of control

O=C1Nc2ccccc2CCc2ccccc21
inactive: [10] 87 % of control | [11] 94 % of control | [12] 100 % of control | [13] 100 % of control | [14] 89 % of control | [15] 96 % of control

CC1C(=O)OC(C)(C)C1(C)C (stereo unspecified)
inactive: [16] 108 % of control | [17] 96 % of control | [1] 96 % of control

OC1CCCCC1Br (stereo unspecified)
inactive: dose: 50.0 mg/kg/injection, schedule: Q01DX001 (ip), vehicle: saline 96 % of control | [7] 98 % of control | [8] 113 % of control | [9] 102 % of control

CCOP(=O)(/C(C#N)=C/c1ccccc1)c1ccccc1 (stereo unspecified)
inactive: dose: 50.0 mg/kg/injection, schedule: Q01DX009 (ip), vehicle: Klucel (hydroxypropylcellulose) (HPC) 95 % of control | dose: 75.0 mg/kg/injection, schedule: Q01DX009 (ip), vehicle: Klucel (hydroxypropylcellulose) (HPC) 96 % of control | dose: 75.0 mg/kg/injection, schedule: Q04DX003 (ip), vehicle: Klucel (hydroxypropylcellulose) (HPC) 101 % of control | dose: 150.0 mg/kg/injection, schedule: Q01DX009 (ip), vehicle: Klucel (hydroxypropylcellulose) (HPC) 93 % of control | dose: 150.0 mg/kg/injection, schedule: Q04DX003 (ip), vehicle: Klucel (hydroxypropylcellulose) (HPC) 98 % of control | dose: 300.0 mg/kg/injection, schedule: Q04DX003 (ip), vehicle: Klucel (hydroxypropylcellulose) (HPC) 91 % of control

Cc1c2ccncc2c(C)c2c1[nH]c1ccc(Cl)cc12
inactive: dose: 37.5 mg/kg/injection, schedule: Q01DX001 (oral), vehicle: saline with Tween-80 102 % of control | [4] 96 % of control | [17] 104 % of control | dose: 75.0 mg/kg/injection, schedule: Q01DX001 (oral), vehicle: saline with Tween-80 103 % of control | [5] 94 % of control | [1] 98 % of control | dose: 150.0 mg/kg/injection, schedule: Q01DX001 (oral), vehicle: saline with Tween-80 97 % of control | dose: 200.0 mg/kg/injection, schedule: Q01DX001 (oral), vehicle: saline with Tween-80 108 % of control | [6] 92 % of control | [2] 90 % of control | dose: 400.0 mg/kg/injection, schedule: Q01DX001 (oral), vehicle: saline with Tween-80 107 % of control | dose: 800.0 mg/kg/injection, schedule: Q01DX001 (oral), vehicle: saline with Tween-80 113 % of control

O=C1CCSc2c1ccc1ccccc21
inactive: [7] 87 % of control

COc1ccc(-n2c(=O)c(N=Nc3ccc(Br)cc3)c(O)n(-c3ccc(I)cc3)c2=S)cc1
inactive: dose: 50.0 mg/kg/injection, schedule: Q01DX001 (ip), vehicle: Klucel (hydroxypropylcellulose) (HPC) 103 % of control | dose: 100.0 mg/kg/injection, schedule: Q01DX001 (ip), vehicle: Klucel (hydroxypropylcellulose) (HPC) 100 % of control | dose: 200.0 mg/kg/injection, schedule: Q01DX001 (ip), vehicle: Klucel (hydroxypropylcellulose) (HPC) 91 % of control

COC(=O)CCSP(=S)(Oc1ccccc1)Oc1ccccc1
inactive: [18] 107 % of control | [19] 105 % of control | [20] 96 % of control

O=C1c2ccccc2-c2cc(Br)c(N=C(NO)C(F)(F)F)cc21
inactive: dose: 100.0 mg/kg/injection, schedule: Q01DX001 (ip), vehicle: carboxymethylcellulose (CMC) 115 % of control | dose: 200.0 mg/kg/injection, schedule: Q01DX001 (ip), vehicle: carboxymethylcellulose (CMC) 105 % of control | dose: 400.0 mg/kg/injection, schedule: Q01DX001 (ip), vehicle: carboxymethylcellulose (CMC) 108 % of control

CC(C)(CO)N=Cc1ccc(Cl)cc1Cl
inactive: [7] 93 % of control | [8] 102 % of control | [9] 102 % of control

Cc1cc(Cl)c2c(Cl)ccc(Cl)c2n1
inactive: [7] 98 % of control | [8] 96 % of control | [9] 98 % of control

CNC(=O)CCCCC(=O)NC
inactive: [10] 107 % of control | [11] 103 % of control | [12] 102 % of control | [13] 98 % of control | [14] 108 % of control | [15] 101 % of control

CN1CCCCC(c2ccccc2)(c2ccccc2)C1=N
inactive: dose: 37.5 mg/kg/injection, schedule: Q01DX001 (ip), vehicle: saline 100 % of control

CCCCCCCCCC(=O)CC
inactive: [18] 104 % of control | dose: 100.0 mg/kg/injection, schedule: Q04DX003 (ip), vehicle: Klucel (hydroxypropylcellulose) (HPC) 110 % of control | [19] 96 % of control | dose: 200.0 mg/kg/injection, schedule: Q04DX003 (ip), vehicle: Klucel (hydroxypropylcellulose) (HPC) 97 % of control | [20] 102 % of control | dose: 400.0 mg/kg/injection, schedule: Q04DX003 (ip), vehicle: Klucel (hydroxypropylcellulose) (HPC) 93 % of control

CCC(Cl)COP(=O)(OCC(Cl)CC)C(C(C)C)P(=O)(OCC(Cl)CC)OCC(Cl)CC (stereo unspecified)
inactive: dose: 100.0 mg/kg/injection, schedule: Q04DX002 (ip), vehicle: saline with Tween-80 96 % of control | dose: 200.0 mg/kg/injection, schedule: Q04DX002 (ip), vehicle: saline with Tween-80 100 % of control | dose: 400.0 mg/kg/injection, schedule: Q04DX002 (ip), vehicle: saline with Tween-80 89 % of control

CCCC(C)C(C)CC (stereo unspecified)
inactive: dose: 25.0 mg/kg/injection, schedule: Q01DX001 (ip), vehicle: saline sonified 107 % of control | dose: 50.0 mg/kg/injection, schedule: Q01DX001 (ip), vehicle: saline sonified 98 % of control | dose: 100.0 mg/kg/injection, schedule: Q01DX001 (ip), vehicle: saline sonified 93 % of control

CC(=O)[O][Hg][c]1c(C)c(C)cc(C)c1C
inactive: dose: 6.25 mg/kg/injection, schedule: Q04DX003 (ip), vehicle: saline with Tween-80 93 % of control | dose: 12.5 mg/kg/injection, schedule: Q04DX003 (ip), vehicle: saline with Tween-80 87 % of control | [16] 95 % of control

CN(C)/N=N/c1nc[nH]c1C(=O)N/N=C/c1ccc(N(CCCl)CCCl)cc1
inactive: dose: 100.0 mg/kg/injection, schedule: Q01DX001 (ip), vehicle: other 100 % of control | dose: 200.0 mg/kg/injection, schedule: Q01DX001 (ip), vehicle: other 104 % of control | dose: 400.0 mg/kg/injection, schedule: Q01DX001 (ip), vehicle: other 98 % of control
